The values below come from patent US20250197436A1, “GALACTOOLIGOSACCHARIDE COMPOSITION” (priority 2022, published 2025).

Molecules are shown by their SMILES.

This series deals with microbiota present in the faecal samples. The series is described as follows: Faecal fermentation, distribution of oligosaccharides (HPAEC-PAD peak areas). The source says: HPAEC-PAD (high performance anion exchange chromatography) equipped with a PA-1 column was used for separation of mono- and oligosaccharides of the different samples. […] The samples as used for GPC were 100-fold diluted with DMSO before injection.
The distribution of oligosaccharides in the mixtures was also monitored over this time period using the method described above in relation to Table 2.

[1] abbreviates: Comp. Ex. 1 sample, 6 h, Donor A.
Setting [2] is: Comp. Ex. 1 sample, 6 h, Donor B.
Where [3] appears, read: Comp. Ex. 1 sample, 6 h, Donor C.
[4] abbreviates: Comp. Ex. 1 sample, 24 h, Donor A.
[5] abbreviates: Comp. Ex. 1 sample, 24 h, Donor B.
Where [6] appears, read: Comp. Ex. 1 sample, 24 h, Donor C.
Setting [7] is: Comp. Ex. 1 sample, 48 h, Donor A.
Setting [8] is: Comp. Ex. 1 sample, 48 h, Donor B.
[9] abbreviates: Comp. Ex. 1 sample, 48 h, Donor C.
The mark [10] stands for this setting: Example 2 sample, 24 h, Donor A.
Where [11] appears, read: Example 2 sample, 24 h, Donor B.
The mark [12] stands for this setting: Example 2 sample, 24 h, Donor C.
Setting [13] is: Example 2 sample, 48 h, Donor A.
Where [14] appears, read: Example 2 sample, 48 h, Donor B.
Setting [15] is: Example 2 sample, 48 h, Donor C.

For the compound `OC[C@H]1O[C@@H](OC[C@H]2OC(O)[C@H](O)[C@@H](O)[C@@H]2O)[C@H](O)[C@@H](O)[C@H]1O` (some centres unmarked) [Allolactos, Allolactose], the Peak areas worked out at 16.2 (Comp. Ex. 1 sample, 0 h); 0.0 under setting [1]; 0.0 under setting [2]; 0.0 under setting [3]; 0.0 under setting [4]; 0.0 under setting [5]. Further, the Peak areas runs as follows: under setting [6], 0.0; under setting [7], 0.0; under setting [8], 0.0; under setting [9], 0.0; (Example 2 sample, 0 h) 24; (Example 2 sample, 6 h, Donor A) 1.3. The Peak areas was 0.0 (Example 2 sample, 6 h, Donor B); 0.0 (Example 2 sample, 6 h, Donor C); 0.0 under setting [10]; 0.0 under setting [11]; 0.0 under setting [12]; 0.0 under setting [13]. The same compound yielded a Peak areas under setting [14] of 0.0 and a Peak areas under setting [15] of 0.0.
In the case of `OC[C@H]1O[C@@H](O[C@@H]2[C@H](O)[C@@H](O)[C@H](O[C@H]3[C@H](O)[C@@H](O)C(O)O[C@@H]3CO)O[C@@H]2CO)[C@H](O)[C@@H](O)[C@H]1O` (stereo partly drawn) [Cpd. ID 11, D-Gal-(β1-4)-D-Gal-(β1-4)-D-Glu], the Peak areas came out at 27.6 (Comp. Ex. 1 sample, 0 h); 1.9 under setting [1]; 5.7 under setting [2]; 1.6 under setting [3]; 1.9 under setting [4]; 2.0 under setting [5]. This compound also registered a Peak areas under setting [6] of 0.7; a Peak areas under setting [7] of 0.0; a Peak areas under setting [8] of 1.9; a Peak areas under setting [9] of 0.2; a Peak areas (Example 2 sample, 0 h) of 20.4; a Peak areas (Example 2 sample, 6 h, Donor A) of 3.2. The Peak areas by setting is: (Example 2 sample, 6 h, Donor B) 4.5; (Example 2 sample, 6 h, Donor C) 1.6; under setting [10], 1.2; under setting [11], 1.7; under setting [12], 0.5; under setting [13], 0.3. The Peak areas is 2.6 under setting [14] and 0.6 under setting [15].
For `OC[C@H]1O[C@@H](O[C@H]2[C@@H](O)[C@@H](CO)O[C@@H](O[C@H]3[C@H](O)[C@@H](O)C(O)O[C@@H]3CO)[C@@H]2O)[C@H](O)[C@@H](O)[C@H]1O` (stereo partly drawn) [Cpd. ID 12, D-Gal-(β1-3)-D-Gal-(β1-4)-D-Glu], the Peak areas runs as follows: (Comp. Ex. 1 sample, 0 h) 1.4; under setting [1], 1.4; under setting [2], 0.8; under setting [3], 0.9; under setting [4], 0.4; under setting [5], 0.4. For the same compound, the Peak areas under setting [6] is recorded as 0.4; the Peak areas under setting [7] stood at 0.1; the Peak areas under setting [8] amounted to 1.1; the Peak areas under setting [9] is reported as 0.1; the Peak areas (Example 2 sample, 0 h) was found to be 28.9; the Peak areas (Example 2 sample, 6 h, Donor A) is listed as 1.1. Moreover, the Peak areas was found to be 5.4 (Example 2 sample, 6 h, Donor B); 1.2 (Example 2 sample, 6 h, Donor C); 0.4 under setting [10]; 0.7 under setting [11]; 0.3 under setting [12]; 0.3 under setting [13]. Besides, the Peak areas runs as follows: under setting [14], 0.7; under setting [15], 0.2.
For `OC[C@H]1O[C@@H](O[C@H]2[C@@H](O)[C@@H](CO)O[C@@H](O[C@H]3[C@H](O)[C@@H](CO)OC(O)[C@@H]3O)[C@@H]2O)[C@H](O)[C@@H](O)[C@H]1O` (stereo partly drawn) [Cpd. ID 29, D-Gal-(β1-3)-D-Gal-(β1-3)-D-Glu], the Peak areas reads like this: (Comp. Ex. 1 sample, 0 h) 4.7; under setting [1], 0.1; under setting [2], 2.0; under setting [3], 1.0; under setting [4], 0.2; under setting [5], 0.4. For the same compound, the Peak areas reads like this: under setting [6], 0.0; under setting [7], 0.0; under setting [8], 0.3; under setting [9], 0.0; (Example 2 sample, 0 h) 12.8; (Example 2 sample, 6 h, Donor A) 1.1. The compound further yielded a Peak areas (Example 2 sample, 6 h, Donor B) of 2.0; a Peak areas (Example 2 sample, 6 h, Donor C) of 0.4; a Peak areas under setting [10] of 0.0; a Peak areas under setting [11] of 0.0; a Peak areas under setting [12] of 0.0; a Peak areas under setting [13] of 0.1. This compound yielded a Peak areas under setting [14] of 0.4 and a Peak areas under setting [15] of 0.1.
The compound `OC[C@H]1O[C@@H](O[C@H]2[C@@H](O)[C@@H](CO)O[C@@H](O[C@H]3C(O)O[C@H](CO)[C@@H](O)[C@@H]3O)[C@@H]2O)[C@H](O)[C@@H](O)[C@H]1O` (stereo partly drawn) [Cpd. ID 30, D-Gal-(β1-3)-D-Gal-(β1-2)-D-Glu] yielded a Peak areas (Comp. Ex. 1 sample, 0 h) of 2.6; a Peak areas under setting [1] of 0.0; a Peak areas under setting [2] of 1.3; a Peak areas under setting [3] of 0.3; a Peak areas under setting [4] of 0.0; a Peak areas under setting [5] of 0.5. Further, the Peak areas is, setting by setting: under setting [6], 0.0; under setting [7], 0.0; under setting [8], 0.6; under setting [9], 0.0; (Example 2 sample, 0 h) 12.6; (Example 2 sample, 6 h, Donor A) 0.0. Moreover, the Peak areas is, setting by setting: (Example 2 sample, 6 h, Donor B) 1.8; (Example 2 sample, 6 h, Donor C) 0.9; under setting [10], 0.0; under setting [11], 0.5; under setting [12], 0.0; under setting [13], 0.1. In addition, the Peak areas was found to be 0.0 under setting [14] and 0.2 under setting [15].
In the case of `OC[C@H]1O[C@@H](O[C@H]2[C@@H](O)[C@@H](CO)O[C@@H](O[C@H]3[C@@H](O)[C@@H](CO)O[C@@H](O[C@H]4[C@H](O)[C@@H](O)C(O)O[C@@H]4CO)[C@@H]3O)[C@@H]2O)[C@H](O)[C@@H](O)[C@H]1O` (stereo partly drawn) [Cpd. ID 31, D-Gal-(β1-3)-D-Gal-(β1-3)-D-Gal-(β1-4)-D-Glu], the Peak areas (Comp. Ex. 1 sample, 0 h) worked out at 0.8; the Peak areas under setting [1] came to 0.0; the Peak areas under setting [2] turned out to be 0.5; the Peak areas under setting [3] came out at 0.3; the Peak areas under setting [4] worked out at 0.5; the Peak areas under setting [5] came to 0.5. Besides, the Peak areas under setting [6] came to 0.0; the Peak areas under setting [7] was 0.0; the Peak areas under setting [8] stood at 0.4; the Peak areas under setting [9] amounted to 0.0; the Peak areas (Example 2 sample, 6 h, Donor A) is recorded as 0.0; the Peak areas (Example 2 sample, 6 h, Donor B) is 2.0. Besides, the Peak areas is given as 0.3 (Example 2 sample, 6 h, Donor C); 0.2 under setting [10]; 0.3 under setting [11]; 0.0 under setting [12]; 0.0 under setting [13]; 0.0 under setting [14]. For the same compound, the Peak areas under setting [15] turned out to be 0.0.
`O=C[C@H](O)[C@@H](O)[C@@H](O)[C@H](O)CO` [Galactose]: the Peak areas was determined as 0.5 (Comp. Ex. 1 sample, 0 h); 2.4 under setting [1]; 45.1 under setting [2]; 0.7 under setting [3]; 0.0 under setting [4]; 0.1 under setting [5]. For the same compound, the Peak areas is given as 0.0 under setting [6]; 0.0 under setting [7]; 0.0 under setting [8]; 0.0 under setting [9]; 1.3 (Example 2 sample, 0 h); 2.1 (Example 2 sample, 6 h, Donor A). This compound had a Peak areas (Example 2 sample, 6 h, Donor B) of 47.3; a Peak areas (Example 2 sample, 6 h, Donor C) of 0.8; a Peak areas under setting [10] of 0.0; a Peak areas under setting [11] of 0.1; a Peak areas under setting [12] of 0.0; a Peak areas under setting [13] of 0.0. Besides, the Peak areas reads like this: under setting [14], 0.0; under setting [15], 0.0.
In the case of `O=C[C@H](O)[C@@H](O)[C@H](O)[C@H](O)CO` [Glucose], the Peak areas came out at 19.5 (Comp. Ex. 1 sample, 0 h); 2.9 under setting [1]; 34.1 under setting [2]; 0.2 under setting [3]; 0.0 under setting [4]; 0.1 under setting [5]. Also, the Peak areas under setting [6] was 0.0; the Peak areas under setting [7] was determined as 0.0; the Peak areas under setting [8] worked out at 0.0; the Peak areas under setting [9] is 0.0; the Peak areas (Example 2 sample, 0 h) amounted to 17.5; the Peak areas (Example 2 sample, 6 h, Donor A) is on record as 2.6. Also, the Peak areas by setting is: (Example 2 sample, 6 h, Donor B) 26.9; (Example 2 sample, 6 h, Donor C) 0.3; under setting [10], 0.0; under setting [11], 0.0; under setting [12], 0.0; under setting [13], 0.0. Moreover, the Peak areas is recorded as 0.0 under setting [14] and 0.0 under setting [15].
Regarding `OC[C@H]1O[C@@H](O[C@H]2[C@H](O)[C@@H](O)C(O)O[C@@H]2CO)[C@H](O)[C@@H](O)[C@H]1O` (some centres unmarked) [Lactose], the Peak areas stood at 48.4 (Comp. Ex. 1 sample, 0 h); 0.7 under setting [1]; 1.9 under setting [2]; 0.4 under setting [3]; 0.4 under setting [4]; 0.5 under setting [5]. Also, the Peak areas is on record as 0.4 under setting [6]; 0.3 under setting [7]; 0.5 under setting [8]; 0.3 under setting [9]; 30.9 (Example 2 sample, 0 h); 0.3 (Example 2 sample, 6 h, Donor A). For the same compound, the Peak areas runs as follows: (Example 2 sample, 6 h, Donor B) 5.3; (Example 2 sample, 6 h, Donor C) 0.6; under setting [10], 0.3; under setting [11], 0.4; under setting [12], 0.4; under setting [13], 0.3. This compound also had a Peak areas under setting [14] of 0.5 and a Peak areas under setting [15] of 0.3.
